Molecular target: T1, Penicillin-binding protein 4 (Bacillus subtilis (strain 168), UniProt P40750)
T1 sequence (P40750 whole entry): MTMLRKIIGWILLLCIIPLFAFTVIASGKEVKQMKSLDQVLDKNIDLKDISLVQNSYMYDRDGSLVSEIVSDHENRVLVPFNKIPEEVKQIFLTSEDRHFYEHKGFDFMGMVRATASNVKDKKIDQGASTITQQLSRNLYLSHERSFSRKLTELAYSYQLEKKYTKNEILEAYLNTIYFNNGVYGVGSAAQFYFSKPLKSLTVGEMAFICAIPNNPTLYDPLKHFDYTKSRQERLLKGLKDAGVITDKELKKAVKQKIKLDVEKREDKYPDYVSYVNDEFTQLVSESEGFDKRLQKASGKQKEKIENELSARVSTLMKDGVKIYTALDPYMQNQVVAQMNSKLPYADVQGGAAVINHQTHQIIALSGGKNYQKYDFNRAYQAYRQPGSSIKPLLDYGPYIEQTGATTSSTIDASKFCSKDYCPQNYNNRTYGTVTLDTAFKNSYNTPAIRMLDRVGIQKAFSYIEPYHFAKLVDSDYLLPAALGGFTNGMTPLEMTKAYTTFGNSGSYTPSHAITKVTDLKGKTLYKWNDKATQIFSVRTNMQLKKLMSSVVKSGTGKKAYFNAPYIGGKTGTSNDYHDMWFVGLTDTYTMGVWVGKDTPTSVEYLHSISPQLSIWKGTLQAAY
Assay: Inhibition of Bacillus subtilis 168 PBP4 after 30 mins by SDS-PAGE
Conditions: read-out: kon (M-1-s-1)

## CC1(C)S[C@@H]2[C@H](NC(=O)COc3ccccc3)C(=O)N2[C@H]1C(=O)O [Beepen-VK]
  kon: 19000 M⁻¹ s⁻¹
